Measurements: patent US20250213588A1, “STERILIZATION METHOD OF PHARMACEUTICAL PREPARATION AND PACKAGING” (SANTEN PHARMACEUTICAL CO., LTD., priority 2022, published 2025)
Entries after “also recorded” stand apart in the source; their conditions may differ.

Experiments:
Assay type in all cases: physicochemical
[1] = Stability evaluation test after sterilization treatment; conditions: for Hydrolysate (%): Example 6 test preparation; for Residual ratio (%): Example 6 test preparation (0.25 g AFDX0250 in 50 mL, citrate buffer, sodium chloride)
Procedure: An aqueous pharmaceutical composition comprising AFDX0250 or a salt thereof was sterilized to evaluate the stability of AFDX0250 in a preparation.
Sodium citrate hydrate (2.5 g) was dissolved in purified water and the solution was adjusted exactly to 100 mL to prepare 2.5% sodium citrate hydrate solution. Citric acid hydrate (0.2 g) was dissolved in purified water and the solution was adjusted exactly to 100 mL to prepare 0.2% citric acid hydrate solution. Sodium chloride (5 g) was dissolved in purified water and the solution was adjusted exactly to 50 mL to prepare 10% sodium chloride solution. 0.25 g of AFDX0250 was weighed, the weighed AFDX0250 was mixed with 10 mL each of 2.5% sodium citrate hydrate solution, 0.2% citric acid hydrate solution and 10% sodium chloride solution, and then the solution was adjusted exactly to 50 mL with purified water to prepare a test preparation.
The prepared test preparation was subjected to gamma radiation sterilization, sterilization by filtration using a filter or autoclaved (AC) sterilization to prepare a sterile formulation. The amount of AFDX0250 after each sterilization treatment was quantified by high performance liquid chromatography to calculate the residual ratio of AFDX0250 (%). The residual ratio of AFDX0250 (%) represents the ratio of AFDX0250 (%) after sterilization treatment when the amount of AFDX0250 in the test preparation is 100%. In addition, the amount of AFDX0250-derived hydrolysate (5,11-dihydro-6H-pyrido[2,3-b][1,4]benzodiazepin-6-one) in each test preparation excluding the test preparation subjected to gamma radiation sterilization was quantified by high performance liquid chromatography.

[2] = Absorption wavelength measurement test (UV-visible spectrophotometer); conditions: 0.0025% AFDX0250 solution in acetonitrile
Procedure: The absorption wavelength of AFDX0250 was measured.
AFDX0250 (10 mg) was dissolved in acetonitrile, and the solution was adjusted exactly to 100 mL to prepare 0.01% AFDX0250 solution. The solution was diluted 4-fold to prepare 0.0025% AFDX0250 solution. The prepared 0.0025% AFDX0250 solution was used as a test preparation.
The absorption spectrum of the prepared test preparation was measured using ultraviolet visible spectrophotometer.

[3] = Photostability test (1): irradiation at specific wavelengths; conditions: Preparations 1 and 2; irradiated for 24 hours with multi-wavelength irradiation spectrometer; HPLC (FIG. 2)
Procedure: The stability of the aqueous pharmaceutical composition comprising AFDX0250 or a salt thereof under light irradiation was studied.
Preparation 1 with the composition shown in the above Table 1 and Preparation 2 with the composition shown in Table 4 were prepared in usual manners. The prepared preparations were used as test preparations.
The prepared test preparations were irradiated at specific wavelengths using multi-wavelength irradiation spectrometer for 24 hours, and the amount of AFDX0250 in each test preparation at each irradiation wavelength after the irradiation was quantified by high performance liquid chromatography to calculate the residual ratio of AFDX0250 (%). The residual ratio of AFDX0250 (%) represents the ratio of AFDX0250 (%) after irradiation when the amount of AFDX0250 in the test formulation is 100%.

[4] = after AC (autoclaved) sterilization
[5] = after sterilization by filtration using a filter

SMILES: CCN(CC)C[C@H]1CCCCN1CC(=O)N1c2ccccc2C(=O)Nc2cccnc21 [AFDX0250, (R)-11-[2-[2-[(diethylamino)methyl]-1-piperidinyl]acetyl]-5,11-dihydro-6H-pyrido[2,3-b][1,4]benzodiazepin-6-one]
- Hydrolysate (%) [1, 4]: 0.37%
- Residual ratio (%) [1, 4]: 93.8%
- Residual ratio (%) ([1]; after gamma radiation sterilization): 55.7%
- Hydrolysate (%) [1, 5]: 0.06%
- Residual ratio (%) [1, 5]: 100.3%
- absorption spectrum of AFDX0250 [2]: no absorption of AFDX0250 was observed at the longer wavelengths than about 330 nm
- degradation of AFDX0250 under irradiation at specific wavelengths [3]: degraded at a wavelength of from 216 to 310 nm and 372 nm; also recorded: particularly degraded at a wavelength of 370 nm
